Source: patent publication US7468379B2, “Inhibition of osteolytic lesions by SRC kinase inhibitors” (The Board of Regents of the University of Texas System, priority 2005, dated 2008)

Tests used:
[1] = system: Src-dependent protein tyrosine phosphorylation; test: Src-dependent protein tyrosine phosphorylation; settings: concentrations comparable to the Src enzyme IC50
MDA-MB-435 cells = test: MDA-MB-435 Bone Tumor Mouse Model (intratibial injection); type: in vivo, Female athymic NCr nude mice; settings: SKI606 150 mg/kg oral gavage, 9 weeks; tumor-injected tibia sections
Description: Mice were divided into 3 treatment groups. […] (FIG. 5A) Weight of tumor was determined as follows: weight of injected leg-weight of non-injected hind leg of the same animal. (FIG. 5B) Areas of lysis were estimated from digital X-ray images; NIH Scion program was used to measure area of tibias and lytic areas, to calculate the ratio of pixels in lytic zones/pixels in tibia area. (FIG. 5C) The tumor-injected tibia was fixed and decalcified in EDTA, and sections stained for the presence of multinucleated osteoclasts (>3 nuclei) using TRAP staining kit from Sigma-Aldrich (St. Louis, Mo.).
X-ray images were taken at 35 days after injection, and also at 14-day intervals. […]
Intrabone Injections and Processing of Bone Tissue Samples. […] After 9 weeks, final X-ray images were taken, tumor weight calculated from the difference in weight of the tumor-bearing and non tumor-bearing leg of the same animal. […] Incidence of tumor in the tibia was determined by examination of histology sections. Weight of tumor was determined as follows: weight of injected leg-weight of non-injected hind leg of the same animal. […]
Mice were divided into three treatment groups and the incidence of tumor in the tibia was determined by examination of histology sections and weight of tumor.

RAW264.7 cells [2] = test: RAW264.7 co-culture with MDA-MB-435 cells, osteoclastogenesis (TRAP); type: cell-based, mouse; settings: 400 nM SKI606, 5 days
Description: (§1) FIGS. 4A-4B. […] (FIG. 4B) RAW264.7 cells (750 cells/well; 8 wells per treatment) were plated in 96 well plates in 10% conditioned media from MDA-MB-435 for 5 days. The cultures were fixed and stained for TRAP on day five, using a TRAP staining kit from Sigma-Aldrich (St. Louis, Mo.). Data shown is representative of five experiments.
RAW 264.7 Co-culture with MDA MB435 cells and Conditioned Media. For co-culture assays RAW264.7 (500 cells/well) were plated in 96 well plates and allowed to adhere for 12 hours. MDA-MB-435 were then introduced into the RAW264.7 culture at increasing density and incubated for 12 hours. […] Cells were then fixed, stained for TRAP and the numbers of osteoclasts were counted in each condition as described above.

BMM cells [3] = test: Cytotoxicity assay against BMM cells (crystal violet); type: cell-based
Description: (§2) Primary Bone Marrow Cell Culture. Primary bone marrow cells (BMM) from the tibiae and femora were aseptically dissected from Black 6 mice (C57BU6J) 8-12 weeks of age. Bone marrow was flushed out with incomplete D-MEM and centrifuged at 1200 rpm for 3 minutes and re-suspended in 5 ml incomplete D-MEM. BMM cells were incubated in 20 ml Red Blood Cell lysis buffer (8.3 g/NH4Cl, 1 g/l sodium bicarbonate, 0.4 g/l EDTA) at room temperature for 1-2 min. 25 ml of D-MEM supplemented with 10% FBS and 100 units/ml penicillin (complete D-MEM) were added and BMM cells were centrifuged for 3 min at 1200 rpm. BMM cells were then plated at 1.5−2×10^7 cells/10 cm dish with 10 ml of complete D-MEM and cultured for 24 h. Non-adherent cells were collected and centrifuged for 5 min at 1200 rpm and plated at a concentration of 2.5×10^4 cells/well in a 96 well dish for cytotoxicity assay, 2×10^4 cells/well in 48-well plates, or 5×10^3 cells/well in 96-well plates for osteoclast differentiation assays. Cells were cultured for 3 days in the presence of 10 ng/ml M-CSF before they were washed and used for further studies. For differentiation into osteoclasts 30-100 ng/ml RANKL is added. Media was supplemented after 2 days with fresh M-CSF and RANKL.
Cytotoxicity Assay. […] Absorbance was measured at 630 nm using an EL800 universal microplate reader from Bio-Tek Instruments Inc (Winooski, Vt.).

BMM cells [4] = test: In vitro RANKL-mediated osteoclast differentiation of BMM cells (TRAP staining); type: cell-based, Black 6 mice (C57BL/6J); settings: M-CSF 10 ng/ml and RANKL 100 ng/ml, TRAP staining on day five
From the text: (§3) FIGS. 1A-1C. […] M-CSF was replenished on day 3. Cells were fixed and stained for TRAP on day five, using a TRAP staining kit from Sigma-Aldrich (St. Louis, Mo.). (FIG. 1C) Data shown is representative of three experiments. Shown are photographs of representative fields from the different treatments using a 10× objective lens.
(§4) Primary Bone Marrow Cell Culture. Primary bone marrow cells (BMM) from the tibiae and femora were aseptically dissected from Black 6 mice (C57BU6J) 8-12 weeks of age. Bone marrow was flushed out with incomplete D-MEM and centrifuged at 1200 rpm for 3 minutes and re-suspended in 5 ml incomplete D-MEM. BMM cells were incubated in 20 ml Red Blood Cell lysis buffer (8.3 g/NH4Cl, 1 g/l sodium bicarbonate, 0.4 g/l EDTA) at room temperature for 1-2 min. 25 ml of D-MEM supplemented with 10% FBS and 100 units/ml penicillin (complete D-MEM) were added and BMM cells were centrifuged for 3 min at 1200 rpm. BMM cells were then plated at 1.5−2×10^7 cells/10 cm dish with 10 ml of complete D-MEM and cultured for 24 h. […]
In Vitro Osteoclast Differentiation. […] At day 5, cells were fixed and assessed for osteoclast differentiation by counting the total number of TRAP-positive, multinucleated (>3 nuclei), cells per well 96 h post-treatment using Leucocyte Acid phosphatase kit from Sigma-Aldrich (St. Louis, Mo.).

RAW264.7 cells [5] = test: RAW264.7 with conditioned media from MDA-MB-435 cells, osteoclastogenesis (TRAP); type: cell-based, mouse; settings: 10% conditioned media, 5 days
Description: as §1
For conditioned media the MDA-MB-435 cells were plated in 10 cm plates (1×10^6 cells/plate) and incubated for 36 hours. Media was then removed, centrifuged for 5 minutes at 2500 rpm and supernatants were isolated and placed in 4° C. until use. RAW264.7 cells (750 cells/well) were plated in 96 well plates and allowed to adhere for 12 hours. […] Cells were then fixed, stained for TRAP and the numbers of osteoclasts were counted in each condition as described above.

BMM cells [6] = test: Time-dependency of osteoclast differentiation inhibition in BMM cells; type: cell-based, Black 6 mice (C57BL/6J); settings: 300 nM SKI606 added 12, 24 or 48 hours post-RANKL stimulation, TRAP at 96 h
From the text: as §3, with “2A-2B. BMM cells respond to SKI606 in a time-dependent manner.” for “1A-1C.”, “2B)” for “1C)”, “Photographs” for “Shown”, “are” for “are photographs”
as §4
Time-dependency. […] Cells were then fixed, stained for TRAP and the numbers of osteoclasts were counted in each condition as described above.

BMM cells [7] = test: Bone-resorption assay (collagen I release from OsteoAssay plates); type: cell-based, Black 6 mice (C57BL/6J); settings: 300 nM SKI606 with M-CSF and RANKL, compared to M-CSF and RANKL treatment, day 5
Description: as §2, with “Cells were cultured for 3 days in the presence of 10 ng/ml M-CSF before they were washed and used for further studies. For differentiation into osteoclasts 30-100 ng/ml RANKL is added. Media was supplemented after 2 days with fresh M-CSF and RANKL.” left out
Bone-Resorption Assay. […] Bone resorption was evaluated by measuring collagen I release from the OsteoAssay plate using Cross Laps for Culture ELISA kit from Nordic Bioscience Diagnostics (Portsmouth, Va.). Absorbance was measured at 450 nm using the reading at 650 nm as reference using an EL800 universal microplate reader from Bio-Tek Instruments Inc (Winooski, Vt.).

## COc1cc(Nc2c(C#N)cnc3cc(OCCCN4CCN(C)CC4)c(OC)cc23)c(Cl)cc1Cl [SKI606, 4-((2,4-Dichloro-5-methoxyphenyl)amino)-6-methoxy-7-(3-(4-methyl-1-piperazinyl)propoxy)-3-quinolinecarbonitrile]
[1]
  inhibition of Src-dependent protein tyrosine phosphorylation: inhibits Src-dependent protein tyrosine phosphorylation at comparable concentrations
MDA-MB-435 cells
  TRAP-positive cells counted in sections of tumors: significantly fewer
RAW264.7 cells [2]
  inhibition of MDA-MB-435-induced osteoclastogenesis in RAW264.7 cells: significantly inhibited
BMM cells [3]; 600 nM SKI606, 72 h
  cells died (cytotoxicity to BMM cells): less than 10%
BMM cells [3]; 72 h
  cytotoxicity to BMM cells: not cytotoxic
BMM cells [4]
  effect on RANKL-mediated osteoclast differentiation in BMM: inhibitory effect on RANKL-mediated osteoclast differentiation in BMM in a dose dependent manner
RAW264.7 cells [5]
  inhibition of osteoclastogenesis induced by conditioned media from MDA-MB-435 cells: able to inhibit
BMM cells [6]
  sensitivity of BMM cells to compound added after initiation of osteoclastogenesis: less sensitive
BMM cells [7]
  decrease in collagen I release, an indicator of bone resorption: 3.7 fold
